Data: US20110038897A1, “ORAL CONTROLLED RELEASE FORMULATIONS” (priority 1999, published 2011)

Assay: Biopharmaceutical properties of rivastigmine in humans
Format: in vivo

With `CCN(C)C(=O)Oc1cccc([C@H](C)N(C)C)c1` [Rivastigmine] the absorption was “rapidly and completely absorbed” and the metabolism (esterases, e.g., acetyl and butyryl cholinesterase) was “metabolised mainly through hydrolysis by esterases”.
